PMC3237054 (2011)

How the values were obtained:
LPA3 (hLPA3) = target: T1, LPA3 (hLPA3) (Homo sapiens, UniProt Q9UBY5); type: biochemical; details: read-out: Ki; cho cell membranes
T1 sequence (Q9UBY5 1-353): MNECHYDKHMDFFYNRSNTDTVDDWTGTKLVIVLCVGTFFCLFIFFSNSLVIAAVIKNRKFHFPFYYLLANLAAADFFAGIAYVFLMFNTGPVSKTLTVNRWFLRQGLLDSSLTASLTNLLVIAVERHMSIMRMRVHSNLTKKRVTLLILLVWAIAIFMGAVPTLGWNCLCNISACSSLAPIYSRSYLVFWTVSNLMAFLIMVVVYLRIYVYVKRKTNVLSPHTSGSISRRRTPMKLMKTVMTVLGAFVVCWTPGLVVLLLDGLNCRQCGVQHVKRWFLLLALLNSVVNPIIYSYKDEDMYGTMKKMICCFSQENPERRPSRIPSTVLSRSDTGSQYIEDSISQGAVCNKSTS

LPA1 (hLPA1) = LPA1 (hLPA1) (Homo sapiens, UniProt Q92633); type: biochemical; details: read-out: Ki; cell membranes
LPA1 (hLPA1), sequence (Q92633 whole entry): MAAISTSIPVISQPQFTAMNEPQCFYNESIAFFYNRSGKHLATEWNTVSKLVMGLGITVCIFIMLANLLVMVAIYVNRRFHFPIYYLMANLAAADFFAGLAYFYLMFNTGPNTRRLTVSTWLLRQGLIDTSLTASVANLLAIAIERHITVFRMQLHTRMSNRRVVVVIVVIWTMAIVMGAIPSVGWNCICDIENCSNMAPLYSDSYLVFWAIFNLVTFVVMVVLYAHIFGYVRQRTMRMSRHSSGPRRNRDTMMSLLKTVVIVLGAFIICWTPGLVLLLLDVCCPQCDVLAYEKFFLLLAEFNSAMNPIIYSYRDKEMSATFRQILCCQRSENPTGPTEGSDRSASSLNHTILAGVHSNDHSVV

Question: Which Kb (LPA3 (hLPA3)) does the source give for VPC51299 [6.1] here?
Answer: 512 nM

Question: And the Kb (LPA1 (hLPA1))?
Answer: 143 nM
